From US20250270170A1, “2,3-DIMETHOXY-5-METHYL-1,4-BENZOQUINONE ALKYL ALCOHOL DERIVATIVE AND USE THEREOF” (BEIJING ANJIANXI BIO-MEDICAL TECHNOLOGY CO., LTD., priority 2021, published 2025)
Values joined by “and” are separate entries in the source; they are usually repeats but may differ in a detail not shown here. Equal values may be shown once. Marks after values point to notes of the source that are not given here.

Tests used:
[1] = system: human colorectal cancer HT29 transplanted tumor; assay: Example 10: tumor growth in HT-29 transplanted tumor model; assay type: in vivo, nude mice; settings: HT-29 model, DDP 5 mg/kg i.p. QW × 3, R01 18 mg/kg i.g. BID × 28
Procedure: The human colorectal cancer cell lines HT-29 were obtained from the Cell Bank of the Type Culture Collection Committee of Chinese Academy of Sciences (CAS, cryopreserved in liquid nitrogen in this assay).
HT-29 cells were routinely cultured in a McCoy […] containing 10% fetal bovine serum under culture conditions of 37° C. and 5% CO2. The cells were digested with 0.25% trypsin, and passaged according to the cell growth conditions with a passaging ratio of 1:3 to 1:4.
On D1 of the assay, the HT-29 cells in the logarithmic growth phase were collected, counted and resuspended in serum-free McCoy, and the cell concentration was adjusted to 4×10^7 cells/mL. The cells were pipetted with a pipette to disperse them evenly, and the cells were put into a 50-mL centrifuge tube, which was placed in an ice box. A 1-mL syringe was used to draw the cell suspension, which was injected subcutaneously into the axilla of the front right limb of a nude mouse. Each animal was inoculated with 100 μL (4×10^6 cells/mouse) to establish a HT-29 transplanted tumor model in nude mice. After the inoculation, the animal status and tumor growth were regularly observed. On D12, the tumor diameter was measured using an electronic vernier caliper. The data were input into an Excel spreadsheet to calculate the tumor volume. Tumor-bearing mice in good health and with similar tumor volumes (103 to 179 mm^3) were selected and divided into groups using randomized block method. After the start of the assay, the tumor diameter was measured regularly, the tumor volume was calculated, and the animal body weight was also weighed and recorded.

[2] = Example 9: serum urea nitrogen (BUN) at the end of the assay; assay type: in vivo, nude mice; settings: serum, end of assay, A549 model
Procedure: On the last day of the assay, CO2 inhalation anesthesia was used on the animals 1 hour after the administration (R01). Blood was collected through the heart, and a part of the whole blood was added with EDTA-K2 for anticoagulation. The plasma was separated by centrifugation at 4° C. and 1500 g for 10 minutes. The plasma was collected, and stored in a −40° C. to −20° C. freezer (if necessary, it can be used for the determination of the plasma drug concentration). No anticoagulant was added to the other part of the whole blood, and the serum was separated by centrifugation after the blood coagulated, which was used for the detection of blood urea nitrogen. After the blood collection, the tumor tissue was collected, weighed and photographed. Then, the tumor was divided into two parts, quickly cryopreserved by liquid nitrogen, and transferred to a −90° C. to −60° C. freezer for storage. Bilateral kidneys were collected and fixed in 10% formalin.

[3] = Example 7: serum UREA content; assay type: in vivo, nude mice; settings: DDP 4/2/1/4 mg/kg IP
[4] = system: human gastric cancer NCI-N87 transplanted tumor; assay: Example 7: tumor growth in NCI-N87 transplanted tumor model, alone and combined with DDP; assay type: in vivo, nude mice; settings: DDP 4/2/1/4 mg/kg IP
[5] = Example 3: body weight of NCI-N87 tumor-bearing nude mice; assay type: in vivo, BALB/c nude mice; settings: for Mean animal body weight / body weight loss rate: DDP 4/4/5/5 mg/kg i.p. QW×4
Procedure: The NCI-N87 cells in the logarithmic growth phase were collected, counted and resuspended in a serum-free RPMI-1640 medium, and the cell concentration was adjusted to 5×10^7 cells/mL. The cells were pipetted with a pipette to disperse them evenly, and the cells were put into a 50-mL centrifuge tube, which was placed in an ice box. A 1-mL syringe was used to draw the cell suspension, which was injected subcutaneously into the axilla of the front right limb of a nude mouse. Each animal was inoculated with 100 μL (5×10^6 cells/mouse) to establish an NCI-N87 transplanted tumor model in nude mice. After the inoculation, the animal status and tumor growth were regularly observed, and the tumor diameter was measured using an electronic vernier caliper. The data were input into an Excel spreadsheet to calculate the tumor volume. When the tumor volume reached 100 to 300 mm^3, 72 animals in good health and with similar tumor volumes were selected and divided into 9 groups (n=8) using randomized block method. The day of grouping was regarded as the first day of the assay (D1). After the start of the assay, the tumor diameter was measured twice a week, the tumor volume was calculated, and the animal body weight was also weighed and recorded. [table] The calculation formula of animal weight loss rate is: wherein BWt represents the animal body weight measured each time during the administration period; BWinitial represents the animal body weight when being grouped for administration. The assay data were calculated and processed statistically using Microsoft Office Excel 2007 software. Unless otherwise specified, the data were expressed as mean±standard error (Mean±SE), and t-test was used for comparison between two groups.

SMILES: N.N.[Cl][Pt][Cl] [DDP, cisplatin]
- Mean tumor volume ± SE ([1]; D 12 (grouping)): 131 ± 8 mm^3
- Mean tumor volume ± SE ([1]; D 15): 178 ± 10 mm^3
- tumor growth inhibition rate ([1]; D 15): (37%)
- Mean tumor volume ± SE ([1]; D 19): 263 ± 11** mm^3
- tumor growth inhibition rate ([1]; D 19): (48%)
- Mean tumor volume ± SE ([1]; D 22): 383 ± 25** mm^3
- tumor growth inhibition rate ([1]; D 22): (36%)
- Mean tumor volume ± SE ([1]; D 26): 484 ± 28** mm^3
- tumor growth inhibition rate ([1]; D 26): (39%)
- Mean tumor volume ± SE ([1]; D 29): 582 ± 25** mm^3
- tumor growth inhibition rate ([1]; D 29): (44%)
- Mean tumor volume ± SE ([1]; D 33): 693 ± 34** mm^3
- tumor growth inhibition rate ([1]; D 33): (48%)
- Mean tumor volume ± SE ([1]; D 36): 777 ± 38** mm^3
- tumor growth inhibition rate ([1]; D 36): (47%)
- Mean tumor volume ± SE ([1]; D 40): 896 ± 56** mm^3
- tumor growth inhibition rate ([1]; D 40): (45%)
- BUN (mmol/L) Mean ± SE ([2]; group B, DDP 4 mg/kg i.p. QW × 4): 21.17 ± 1.43 mmol/L
- BUN (mmol/L) Mean ± SE ([2]; group C, DDP 5/7/7/7 mg/kg i.p. QW × 4): 28.56 ± 1.79 mmol/L
- Serum UREA content, Mean [3]: 10.28 mmol serum^−1
- Serum UREA content, individual animals No1-No6 [3]: 8.06 mmol serum^−1 and 12.81 mmol serum^−1 and 15.45 mmol serum^−1 and 8.28 mmol serum^−1 and 10.47 mmol serum^−1 and 6.62 mmol serum^−1
- Mean tumor volume ([4]; D12): 155 ± 6 mm^3
- Mean tumor volume ([4]; D16): 241 ± 6 mm^3
- tumor growth inhibition rate (TGI) ([4]; D16): 15%
- Mean tumor volume ([4]; D19): 294 ± 6* mm^3
- tumor growth inhibition rate (TGI) ([4]; D19): 18%
- Mean tumor volume ([4]; D23): 341 ± 13** mm^3
- tumor growth inhibition rate (TGI) ([4]; D23): 28%
- Mean tumor volume ([4]; D26): 419 ± 22** mm^3
- tumor growth inhibition rate (TGI) ([4]; D26): 34%
- Mean tumor volume ([4]; D30): 543 ± 32** mm^3
- tumor growth inhibition rate (TGI) ([4]; D30): 40%
- Mean tumor volume ([4]; D33): 642 ± 35** mm^3
- tumor growth inhibition rate (TGI) ([4]; D33): 39%
- Mean tumor volume ([4]; D37): 810 ± 61* mm^3
- tumor growth inhibition rate (TGI) ([4]; D37): 36%
- Mean tumor volume ([4]; D40): 911 ± 80* mm^3
- tumor growth inhibition rate (TGI) ([4]; D40): 36%
- Mean tumor volume ([4]; D44): 1035 ± 95* mm^3
- tumor growth inhibition rate (TGI) ([4]; D44): 35%
- Mean animal body weight ([5]; D13): 18.5 ± 0.4 g
- Mean animal body weight ([5]; D16): 17.3 ± 0.4 g
- body weight loss rate ([5]; D16): (6.2%)
- Mean animal body weight ([5]; D20): 17.6 ± 0.4 g
- body weight loss rate ([5]; D20): (4.8%)
- Mean animal body weight ([5]; D23): 17.5 ± 0.4 g
- body weight loss rate ([5]; D23): (5.1%)
- Mean animal body weight ([5]; D27): 18.3 ± 0.6 g
- body weight loss rate ([5]; D27): (1.1%)
- Mean animal body weight ([5]; D30): 17.6 ± 0.4 g
- body weight loss rate ([5]; D30): (4.7%)
- Mean animal body weight ([5]; D34): 17.7 ± 0.4 g
- body weight loss rate ([5]; D34): (4.3%)
- Mean animal body weight ([5]; D37): 17.2 ± 0.4 g
- body weight loss rate ([5]; D37): (6.8%)
- Mean animal body weight ([5]; D44): 16.8 ± 0.4 g
- body weight loss rate ([5]; D44): (8.9%)
- effect on body weight compared with blank control group ([5]; NCI-N87 tumor-bearing nude mice, summary of Table 6): decreased significantly
